Measurements taken from ChEMBL document CHEMBL4665907, “Breakthrough in Degradation of BCR-ABL Fusion Protein for the Treatment of Cancer” (ACS Med Chem Lett, 2020).

Assays:
[1] = target: T1, von Hippel-Lindau disease tumor suppressor/Tyrosine-protein kinase ABL1/Breakpoint cluster region protein (Homo sapiens, UniProt P00519+P11274+P40337); assay: Protac binding affinity at VHL/BCR-ABL (unknown origin) assessed as binding to phosphorylated c-ABL kinase domain by Kinomescan assay; assay type: protein assay
[2] = target: T1, von Hippel-Lindau disease tumor suppressor/Tyrosine-protein kinase ABL1/Breakpoint cluster region protein; assay: Protac binding affinity at VHL/BCR-ABL (unknown origin) assessed as binding to non phosphorylated c-ABL kinase domain by Kinomescan assay; assay type: protein assay
[3] = target: T2, Protein cereblon/Tyrosine-protein kinase ABL1/Breakpoint cluster region protein (Homo sapiens, UniProt P00519+P11274+Q96SW2); assay: Protac binding affinity at CRBN/BCR-ABL (unknown origin) assessed as binding to phosphorylated c-ABL kinase domain by Kinomescan assay; assay type: protein assay
Target sequence in this assay (P00519 whole entry, the tested form may be a part): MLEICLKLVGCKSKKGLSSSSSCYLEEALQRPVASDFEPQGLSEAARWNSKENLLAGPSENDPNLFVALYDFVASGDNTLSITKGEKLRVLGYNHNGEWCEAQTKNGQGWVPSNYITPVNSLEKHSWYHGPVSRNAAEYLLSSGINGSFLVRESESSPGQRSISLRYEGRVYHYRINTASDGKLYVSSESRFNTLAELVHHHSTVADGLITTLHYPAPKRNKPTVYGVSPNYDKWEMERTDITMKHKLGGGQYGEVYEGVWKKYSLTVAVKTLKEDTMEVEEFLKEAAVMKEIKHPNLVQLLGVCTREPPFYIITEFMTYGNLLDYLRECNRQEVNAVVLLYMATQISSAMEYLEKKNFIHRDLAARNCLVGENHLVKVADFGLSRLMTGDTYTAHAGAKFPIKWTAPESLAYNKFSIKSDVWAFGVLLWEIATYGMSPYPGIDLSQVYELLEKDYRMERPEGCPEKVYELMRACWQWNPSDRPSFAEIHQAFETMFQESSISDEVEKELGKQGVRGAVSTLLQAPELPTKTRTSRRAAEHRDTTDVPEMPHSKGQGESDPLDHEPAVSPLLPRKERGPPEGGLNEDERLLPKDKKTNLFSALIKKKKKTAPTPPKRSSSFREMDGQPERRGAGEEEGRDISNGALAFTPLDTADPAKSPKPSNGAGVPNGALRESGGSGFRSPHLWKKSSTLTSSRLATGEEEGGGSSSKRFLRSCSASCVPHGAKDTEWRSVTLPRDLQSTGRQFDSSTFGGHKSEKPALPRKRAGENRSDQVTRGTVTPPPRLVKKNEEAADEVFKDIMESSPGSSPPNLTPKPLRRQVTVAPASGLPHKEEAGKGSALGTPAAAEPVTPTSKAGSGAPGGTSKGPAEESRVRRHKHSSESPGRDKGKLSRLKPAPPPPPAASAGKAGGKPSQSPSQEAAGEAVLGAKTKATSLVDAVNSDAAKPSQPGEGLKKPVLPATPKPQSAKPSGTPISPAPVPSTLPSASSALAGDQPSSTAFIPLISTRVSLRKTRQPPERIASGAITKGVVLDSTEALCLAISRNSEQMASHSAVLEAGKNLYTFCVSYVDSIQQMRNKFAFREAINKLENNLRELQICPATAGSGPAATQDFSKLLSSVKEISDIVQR
Target sequence in this assay (P11274 whole entry, the tested form may be a part): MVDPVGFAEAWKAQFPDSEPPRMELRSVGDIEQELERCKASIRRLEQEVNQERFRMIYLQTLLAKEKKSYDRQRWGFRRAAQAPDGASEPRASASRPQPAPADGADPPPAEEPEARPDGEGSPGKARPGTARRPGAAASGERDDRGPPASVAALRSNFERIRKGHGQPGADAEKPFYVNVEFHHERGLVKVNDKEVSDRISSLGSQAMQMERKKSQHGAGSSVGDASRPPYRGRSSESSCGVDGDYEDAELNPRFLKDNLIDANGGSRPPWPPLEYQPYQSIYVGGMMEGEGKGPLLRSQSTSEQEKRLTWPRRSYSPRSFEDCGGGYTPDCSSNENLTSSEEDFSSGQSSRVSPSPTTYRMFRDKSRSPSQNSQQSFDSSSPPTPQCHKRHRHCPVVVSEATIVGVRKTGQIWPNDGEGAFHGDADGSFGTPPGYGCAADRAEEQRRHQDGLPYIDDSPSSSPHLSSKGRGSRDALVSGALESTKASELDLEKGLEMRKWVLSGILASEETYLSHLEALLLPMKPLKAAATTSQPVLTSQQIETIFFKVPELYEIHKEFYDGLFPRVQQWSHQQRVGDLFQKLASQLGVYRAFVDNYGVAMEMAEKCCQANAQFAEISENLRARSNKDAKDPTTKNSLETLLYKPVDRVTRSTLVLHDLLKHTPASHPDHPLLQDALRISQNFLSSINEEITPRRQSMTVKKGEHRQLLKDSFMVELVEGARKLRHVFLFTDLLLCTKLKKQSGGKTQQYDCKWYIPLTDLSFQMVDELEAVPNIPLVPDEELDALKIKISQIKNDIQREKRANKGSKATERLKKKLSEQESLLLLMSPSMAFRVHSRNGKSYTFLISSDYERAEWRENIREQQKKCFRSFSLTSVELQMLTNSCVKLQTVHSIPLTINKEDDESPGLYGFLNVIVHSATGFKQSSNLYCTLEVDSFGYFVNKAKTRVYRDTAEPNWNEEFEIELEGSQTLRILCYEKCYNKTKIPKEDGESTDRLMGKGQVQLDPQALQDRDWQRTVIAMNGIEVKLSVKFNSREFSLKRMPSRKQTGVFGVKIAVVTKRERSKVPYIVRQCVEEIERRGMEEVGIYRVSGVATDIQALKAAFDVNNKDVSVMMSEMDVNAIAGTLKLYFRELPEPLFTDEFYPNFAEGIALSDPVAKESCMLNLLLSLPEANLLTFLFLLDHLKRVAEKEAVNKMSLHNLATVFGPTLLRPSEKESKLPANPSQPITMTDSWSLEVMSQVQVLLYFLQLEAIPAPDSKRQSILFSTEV
Target sequence in this assay (Q96SW2 whole entry, the tested form may be a part): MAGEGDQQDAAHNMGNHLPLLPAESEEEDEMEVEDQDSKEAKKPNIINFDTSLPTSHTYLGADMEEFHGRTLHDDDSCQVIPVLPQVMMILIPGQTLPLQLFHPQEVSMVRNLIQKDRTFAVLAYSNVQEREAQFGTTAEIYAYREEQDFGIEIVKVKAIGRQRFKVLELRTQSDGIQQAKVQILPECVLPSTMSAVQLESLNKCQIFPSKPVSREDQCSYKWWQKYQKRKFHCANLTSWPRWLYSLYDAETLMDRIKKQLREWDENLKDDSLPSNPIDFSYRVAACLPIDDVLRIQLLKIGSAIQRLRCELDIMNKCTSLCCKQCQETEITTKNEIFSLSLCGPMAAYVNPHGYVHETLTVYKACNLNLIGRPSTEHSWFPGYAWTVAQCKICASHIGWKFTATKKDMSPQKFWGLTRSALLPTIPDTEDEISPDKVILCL

[4] = target: T2, Protein cereblon/Tyrosine-protein kinase ABL1/Breakpoint cluster region protein; assay: Protac binding affinity at CRBN/BCR-ABL (unknown origin) assessed as binding to non phosphorylated c-ABL kinase domain by Kinomescan assay; assay type: protein assay
Target sequence in this assay (P00519 whole entry, the tested form may be a part): as the sequence (P00519 whole entry, the tested form may be a part) above
Target sequence in this assay (P11274 whole entry, the tested form may be a part): as the sequence (P11274 whole entry, the tested form may be a part) above
Target sequence in this assay (Q96SW2 whole entry, the tested form may be a part): as the sequence (Q96SW2 whole entry, the tested form may be a part) above

[5] = target: T2, Protein cereblon/Tyrosine-protein kinase ABL1/Breakpoint cluster region protein; assay: Protac activity at CRBN/BCR-ABL in human K562 cells assessed as induction of BCR-ABL degradation at 2.5 uM incubated for 24 hrs by western blot analysis relative to control; assay type: cell-based
Target sequence in this assay (P00519 whole entry, looked up, the tested form may be a part): as the sequence (P00519 whole entry, the tested form may be a part) above
Target sequence in this assay (P11274 whole entry, looked up, the tested form may be a part): as the sequence (P11274 whole entry, the tested form may be a part) above
Target sequence in this assay (Q96SW2 whole entry, looked up, the tested form may be a part): as the sequence (Q96SW2 whole entry, the tested form may be a part) above

[6] = target: T2, Protein cereblon/Tyrosine-protein kinase ABL1/Breakpoint cluster region protein; assay: Protac activity at CRBN/BCR-ABL in human K562 cells assessed as induction of BCR-ABL degradation at 1 uM incubated for 24 hrs by western blot analysis relative to control; assay type: cell-based
Target sequence in this assay (P00519 whole entry, looked up, the tested form may be a part): as the sequence (P00519 whole entry, the tested form may be a part) above
Target sequence in this assay (P11274 whole entry, looked up, the tested form may be a part): as the sequence (P11274 whole entry, the tested form may be a part) above
Target sequence in this assay (Q96SW2 whole entry, looked up, the tested form may be a part): as the sequence (Q96SW2 whole entry, the tested form may be a part) above

T1 sequence (P00519 whole entry, the tested form may be a part): as the sequence (P00519 whole entry, the tested form may be a part) above
T1 sequence (P11274 whole entry, the tested form may be a part): as the sequence (P11274 whole entry, the tested form may be a part) above
T1 sequence (P40337 whole entry, the tested form may be a part): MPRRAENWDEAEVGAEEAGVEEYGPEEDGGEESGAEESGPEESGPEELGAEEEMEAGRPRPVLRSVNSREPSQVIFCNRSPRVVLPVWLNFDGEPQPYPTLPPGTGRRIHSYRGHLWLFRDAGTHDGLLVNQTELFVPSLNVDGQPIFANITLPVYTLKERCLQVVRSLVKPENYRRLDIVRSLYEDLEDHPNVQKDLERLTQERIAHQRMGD

| SMILES | Kd [1] [nM] | Kd [2] [nM] | Kd [3] [nM] | Kd [4] [nM] | Activity [5] [%] | Activity [6] [%] |
| --- | --- | --- | --- | --- | --- | --- |
| COc1cc(Nc2c(C#N)cnc3cc(OCCCN4CCN(CCCCCCOCCOCC(=O)Nc5cccc6c5C(=O)N(C5CCC(=O)NC5=O)C6=O)CC4)c(OC)cc23)c(Cl)cc1Cl (stereo not drawn) | – | – | 0.11 | 0.28 | > 80 | > 60 |
| Cc1nc(Nc2ncc(C(=O)Nc3c(C)cccc3Cl)s2)cc(N2CCN(CCCCCCOCCOCCOCCOCCOCCOCC(=O)Nc3cccc4c3C(=O)N(C3CCC(=O)NC3=O)C4=O)CC2)n1 (stereo not drawn) | – | – | 0.23 | 0.26 | > 80 | > 60 |
| Cc1nc(Nc2ncc(C(=O)Nc3c(C)cccc3Cl)s2)cc(N2CCN(CCCCCCOCCOCCOCCCCCC(=O)Nc3cccc4c3C(=O)N(C3CCC(=O)NC3=O)C4=O)CC2)n1 (stereo not drawn) | – | – | – | – | > 80 | > 60 |
| Cc1nc(Nc2ncc(C(=O)Nc3c(C)cccc3Cl)s2)cc(N2CCN(CCCCCCOCCOCC(=O)N[C@H](C(=O)N3C[C@H](O)C[C@H]3C(=O)NCc3ccc(-c4scnc4C)cc3)C(C)(C)C)CC2)n1 | 0.21 | 0.36 | – | – | – | – |
| COc1cc(Nc2c(C#N)cnc3cc(OCCCN4CCN(CCCCCCOCCOCCOCCCCCC(=O)Nc5cccc6c5C(=O)N(C5CCC(=O)NC5=O)C6=O)CC4)c(OC)cc23)c(Cl)cc1Cl (stereo not drawn) | – | – | 0.55 | 0.91 | > 80 | > 60 |

Second part, the compound after the results:

| Kd [1] [nM] | Kd [2] [nM] | Kd [3] [nM] | Kd [4] [nM] | Activity [5] [%] | Activity [6] [%] | SMILES |
| --- | --- | --- | --- | --- | --- | --- |
| 0.47 | 0.92 | – | – | – | – | Cc1nc(Nc2ncc(C(=O)Nc3c(C)cccc3Cl)s2)cc(N2CCN(CCCCCCOCCOCCOCCCCCC(=O)N[C@H](C(=O)N3C[C@H](O)C[C@H]3C(=O)NCc3ccc(-c4scnc4C)cc3)C(C)(C)C)CC2)n1 |
| 0.3 | 0.57 | – | – | – | – | COc1cc(Nc2c(C#N)cnc3cc(OCCCN4CCN(CCCCCCOCCOCCOCCOCCOCCOCC(=O)N[C@H](C(=O)N5C[C@H](O)C[C@H]5C(=O)NCc5ccc(-c6scnc6C)cc5)C(C)(C)C)CC4)c(OC)cc23)c(Cl)cc1Cl |
| 0.67 | 1.3 | – | – | – | – | COc1cc(Nc2c(C#N)cnc3cc(OCCCN4CCN(CCCCCCOCCOCC(=O)N[C@H](C(=O)N5C[C@H](O)C[C@H]5C(=O)NCc5ccc(-c6scnc6C)cc5)C(C)(C)C)CC4)c(OC)cc23)c(Cl)cc1Cl |
| – | – | 0.13 | 0.38 | > 80 | > 60 | COc1cc(Nc2c(C#N)cnc3cc(OCCCN4CCN(CCCCCCOCCOCCOCCOCCOCCOCC(=O)Nc5cccc6c5C(=O)N(C5CCC(=O)NC5=O)C6=O)CC4)c(OC)cc23)c(Cl)cc1Cl (stereo not drawn) |
| 0.088 | 0.28 | – | – | – | – | Cc1nc(Nc2ncc(C(=O)Nc3c(C)cccc3Cl)s2)cc(N2CCN(CCCCCCOCCOCCOCCOCCOCCOCC(=O)N[C@H](C(=O)N3C[C@H](O)C[C@H]3C(=O)NCc3ccc(-c4scnc4C)cc3)C(C)(C)C)CC2)n1 |
